Experimental data reported in patent US11844794B2, “Pharmaceutical compositions” (ADEPTIO PHARMACEUTICALS LIMITED, priority 2017, dated 2023).
“Also recorded” adds a separate entry of the source. Where two headings read alike, the source gives them in different places.

Assays:
[1] = equilibrium aqueous solubility by HPLC; type: physicochemical
Method: The aqueous solubilities of salts were measured by an equilibrium method in which an amount of the salt was weighed into a 2 ml vial equipped with a magnetic stirrer bar and water added. In cases where complete dissolution was observed, more material was added until the sample was exhausted. The slurry was then stirred for seven days before isolating the solids by centrifuge-filtration. The solids were analysed by XRPD and the filtrates were analysed by HPLC to determine the amount of (+)-alpha-dihydrotetrabenazine salt in solution. The solubilities were calculated against a calibration curve established for a (+)-alpha-dihydrotetrabenazine sample of known concentration.

[2] = solid form stability in slurry / polymorphism by XRPD; type: physicochemical; conditions: for crystalline form after stirring in slurry (XRPD): one week
[3] = thermal gravimetric analysis (TGA) / thermal stability; conditions: for TGA weight loss: 30-300° C. at 10° C./minute
Method: Differential scanning calorimetry (DSC) was carried out on the sample “as is” using a Mettler DSC1 instrument. The sample was weighed I an aluminium pan, covered with a pierced lid, and then crimped and analysed from 30-300° C. at 10° C./minute.
Thermal gravimetric analysis was performed on the sample “as is” using a Mettler 851^e TGA instrument. The sample was weighed in an alumina crucible and analysed from 30-300° C. at 10° C./minute.

[4] = system: patients suffering from tardive dyskinesia; conditions: cited from earlier work
[5] = system: Tardive Dyskinesia sufferers; conditions: Valbenazine 80 mg/day; cited from earlier work
[6] = moisture-sorption analysis; type: physicochemical; conditions: for moisture uptake: 25° C.
Method: Moisture-sorption analysis was carried out using a Hiden IGA Sorp moisture-sorption analyser. […] The sample was then subjected to an isothermal (at 25° C.) adsorption scan from 40 to 90% relative humidity in steps of 10%. The sample was allowed to equilibrate to an asymptotic weight at each point for a maximum of four hours. […] An adsorption scan was then performed from 0 to 40% relative humidity inn steps of 10%. The sample was dried for two hours at 60° C. and 0% relative humidity, and the resulting solid was analysed by XRPD.

amphetamine-induced rats = assay: amphetamine-induced locomotor activity, open field test; type: in vivo, rat; conditions: male CD rats
Method: (§1) All animal experiments were carried out according to the National Institute of Health (NIH) guidelines for the care and use of laboratory animals, and approved by the National Animal Experiment Board, Finland. Male CD (Charles River Laboratories, Germany) at weight range of 200-250 g (165-200 g upon arrival) were used for the experiments. Animals were housed at a standard temperature (22±1° C.) and in a light-controlled environment (lights on from 7 am to 8 pm) with ad libitum access to food and water.
(§2) Locomotor activity of the rats was tested in open field arena. The open field test was performed during the rat light cycle and under a normal lighting evenly distributed to the test chambers. The paths of the rats were recorded by activity monitor (Med. Associates Inc.).
(§3) Dosing the vehicle, vehicle-amphetamine, (+)-α-DHTBZ or risperidone was done prior to LMA test. The rats were placed in the centre of the arena, and the path was recorded for 60 minutes.
Animals were grouped as follows: • Group 1: 10 rats treated with Vehicle (t=0 min) and Vehicle (t=30 min) • Group 2: 10 rats treated with Vehicle (t=0 min) and Amphetamine (t=30 min) • Group 3: 10 rats treated with (+)-α-DHTBZ 0.5 mg/kg (t=0 min) and Amphetamine (t=30 min) • Group 4: 10 rats treated with (+)-α-DHTBZ 1 mg/kg (t=0 min) and Amphetamine (t=30 min) • Group 5: 10 rats treated with (+)-α-DHTBZ 1.5 mg/kg (t=0 min) and Amphetamine (t=30 min) • Group 6: 10 rats treated with (+)-α-DHTBZ 2 mg/kg (t=0 min) and Amphetamine (t=30 min) • Group 7: 10 rats treated with risperidone 1 mg/kg (t=0 min) and Amphetamine (t=30 min)
(§4) Rats dosed with either vehicle, (+)-α-DHTBZ 0.5 mg/kg, (+)-α-DHTBZ 1 mg/kg, (+)-α-DHTBZ 1.5 mg/kg, (+)-α-DHTBZ 2 mg/kg or Risperidone 1 mg/kg were subjected to LMA testing first for 30 min and then for 60 minutes after vehicle or amphetamine challenge. Resulting locomotor activity was evaluated in 3 min bins and as a total over the testing period.
as §4, with “stereotypic” for “locomotor”, “period. […]” for “period.”

[7] = system: non-amphetamine induced rats; assay: locomotor activity in rats without amphetamine induction, open field test; type: in vivo, rat; conditions: Study 3, non-induced rats, 1 mg/kg
Method: as §1, §2, §3
Animals were grouped as follows: • Group 1: 10 rats treated with Vehicle • Group 2: 10 rats treated with (+)-α-DHTBZ 2.5 mg/kg • Group 3: 10 rats treated with (+)-α-DHTBZ 5 mg/kg • Group 4: 10 rats treated with risperidone 1 mg/kg

[8] = target: Chromaffin Granule Monoamine Transporter (Bos taurus, UniProt Q27963); conditions: racemic α versus racemic β, in vitro; cited from earlier work
Chromaffin Granule Monoamine Transporter, sequence (Q27963 whole entry): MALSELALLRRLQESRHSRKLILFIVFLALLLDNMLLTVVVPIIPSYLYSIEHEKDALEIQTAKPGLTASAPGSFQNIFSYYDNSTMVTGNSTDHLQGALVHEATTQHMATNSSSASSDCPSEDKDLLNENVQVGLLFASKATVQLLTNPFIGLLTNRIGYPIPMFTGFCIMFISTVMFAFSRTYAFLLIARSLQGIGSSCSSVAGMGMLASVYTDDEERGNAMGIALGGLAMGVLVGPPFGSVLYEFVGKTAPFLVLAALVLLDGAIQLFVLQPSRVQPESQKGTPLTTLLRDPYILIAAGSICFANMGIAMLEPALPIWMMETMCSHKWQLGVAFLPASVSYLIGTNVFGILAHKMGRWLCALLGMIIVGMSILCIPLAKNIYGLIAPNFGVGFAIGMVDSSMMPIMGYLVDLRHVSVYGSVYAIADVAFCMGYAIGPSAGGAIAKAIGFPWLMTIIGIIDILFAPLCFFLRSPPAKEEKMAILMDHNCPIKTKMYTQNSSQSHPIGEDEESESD

## COc1cc2c(cc1OC)[C@H]1C[C@@H](O)[C@H](CC(C)C)CN1CC2.Cl [HCl salt form A, (+)-α-dihydrotetrabenazine hydrochloride]
[1]
  equilibrium solubility in water: 203 mg/mL
  solubility thermodynamic: 203 mg/mL
[2]
  polymorphism: undesirable polymorphism
[2]; aqueous slurry
  crystalline form after stirring in slurry (XRPD): conversion to a different (by XRPD) crystalline form
[3]
  TGA weight loss: No weight loss

## COc1cc2c(cc1OC)[C@H]1C[C@@H](OC(=O)[C@@H](N)C(C)C)[C@H](CC(C)C)CN1CC2 [Valbenazine]
[4]; Valbenazine 50 mg/day
  improvement scored with AIMS: did not show any significant signs of improvement
[4]; Valbenazine 100 mg/day
  reduction of symptoms (AIMS): some reduction of symptoms
[5]
  Abnormal Involuntary Movement Score: significant improvement

## COc1cc2c(cc1OC)[C@H]1C[C@@H](O)[C@H](CC(C)C)CN1CC2.O=S(=O)(O)c1ccccc1 [benzenesulphonate salt]
[1]; water, measured by HPLC
  equilibrium solubility in water: 2.20 mg/mL
[6]; 60% relative humidity
  moisture uptake: 0.2 wt %
[6]; 90% relative humidity
  moisture uptake: 1.7 wt %
[6]; gravimetric moisture-sorption
  hygroscopicity: slightly hygroscopic
[2]
  polymorphism: no apparent polymorphism
[2]; water, ethanol and ethyl acetate slurry
  crystalline form after stirring in slurry (XRPD): remained unchanged
[3]
  TGA weight loss: No weight loss
[3]; from DSC and TGA
  thermal stability: good thermal stability

## Cc1nc2n(c(=O)c1CCN1CCC(c3noc4cc(F)ccc34)CC1)CCCC2 [risperidone, reference compound]
amphetamine-induced rats; Study 1, 1 mg/kg
  total distance travelled compared to vehicle-amphetamine group: lower locomotor activity
  total stereotypic behaviour compared to vehicle-amphetamine group: significantly different; also recorded: reduced stereotypic behaviour
amphetamine-induced rats; Study 2, 1 mg/kg
  total distance travelled compared to vehicle-amphetamine group: lower locomotor activity
  total stereotypic behaviour compared to vehicle-amphetamine group: significantly different; also recorded: reduced stereotypic behaviour
[7]
  total movement versus vehicle: reduced total movement
  total stereotypic behaviour versus vehicle: reduced total stereotypic behaviour

## α-dihydrotetrabenazine
[8]
  higher affinity than the β-isomer: 3- to 4 fold
